# According to patent US20090286831A1, “VR1 Receptor Ligands and u-Opioid Receptor Ligands for the Treatment of Pain” (priority 2006, published 2009):
# Experiments:
# Format in all cases: in vivo, rat
# [1] = tested on: rats; experiment: Tail-flick (hot beam) test in rats
# Protocol: (§1) Sprague Dawley rats (140-160 g body weight) were used for the following animal models. Sprague Dawley rats (140-160 g body weight) from a commercial breeder (Janvier, Genest St. Isle, France) were used. The animals were kept under standard conditions: light-dark rhythm (06:00 to 18:00 h light, 18:00 to 06:00 h dark), room temperature 19-23° C., relative air humidity 45-65%, air exchange 19 times per hour, air movement <0.2 m/s, free choice of tap water and standard feed, Macrolon Type 4 cages with 5 animals per cage. The solutions of the test substances and/or vehicles (10% […], 5% Cremophor EL, 5% glucose) were administered intravenously.
# The analgesic efficacy of the test compounds was examined in the hot beam (tail flick) test in rats using the method of D'Amour and Smith (J. Pharm. Exp. Ther. 1941, 72, 74-79). The time from switching on the lamp (8V/50 W) to the sudden flicking away of the tail from the hot beam (pain latency) was measured by means of a semiautomatic apparatus (tail-flick Analgesiemeter Type 50/08/1.bc, Labtec, Dr. Hess, Germany). The lamp intensity was adjusted before conducting the experiments so that the time from switching on the lamp to the sudden flicking away of the tail (pain latency) amounted to 3-5 seconds in untreated animals. The lamp was automatically switched off after 12 seconds to avoid tissue damage to the rat's tail. The pain latency was measured 10, 20, 40 and 60 min after intravenous administration. The analgesic effect was determined as increase in pain latency (% MPE) according to the following formula: […]
# In this case, T0 is the latency time before and T1 the latency time after substance application, T2 is the maximum exposure time (12 sec). Results of the analgesia study in the tail-flick test in rats:
# The following experiments of Example 2 relate to binding studies and the analgesic efficacy of the compounds with dual mode of action according to the invention. The experiments comprise the determination of the (f)Ki value at the TPRV1 receptor, the Ki value at the μ-opioid receptor and the hypothermia assay in mice. The tail-flick test for the compounds [1], [4], [7] and [10] according to the invention was conducted in a similar manner to the above-described method (cf. Example 1, experiment 1).
# [2] = tested on: rats after spinal nerve ligature; experiment: Mono-neuropathic pain after spinal nerve ligature (Chung model), electronic von Frey
# Protocol: as §1
# Under pentobarbital narcosis (Narcoren®, […] i.p., Merial GmbH, Hallbergmoos, Germany), the L5, L6 spinal nerves were firmly bound. The left L5 and L6 spinal nerves were exposed by removing a piece of paravertebral muscle and a portion of the left spinal process of the L5 lumbar vertebral body. The L5 and L6 spinal nerves were carefully isolated and bound with a firm ligature (NC silk, black, USP 5/0, metric 1, Braun Melsungen AG, Melsungen, Germany) (Kim and Chung, An experimental model for peripheral neuropathy produced by segmental spinal nerve ligature in the rat, Pain, 50, 1992, 355-363). After haemostasis was determined, the muscle and adjacent tissue were sutured and the wound closed by metal clamps. After a one-week recovery period the animals were placed in cages with a wire base closed to the top by a plastic hood for measurement of the mechanical allodynia. The animals were kept in this cage until their explorative behaviour had decreased.
# The threshold for the tactile allodynia was measured by means of an electronic von Frey anaesthesiometer (Somedic AB, Malmö, Sweden). The animals were randomly divided into groups of 10 animals. Each group received an individual dose of test substance or vehicle and the measurements were conducted 0.5 h before application and at various times after intravenous administration. Both the ipsi- and the contra-lateral rear paw were tested. The median of five stimulations gave a measured data point. The data were determined as % maximum possible effect (% MPE) from the pre-tests of the Chung individual animals (=0% MPE) and the test values of an independent sham control group (=100% MPE). The effect of the test substance and the vehicle was calculated for each measurement time (i.e. 0.5, 1 and 3 h after application) as inter-individual % MPE value. […] The corresponding threshold values are given in gram (mean±SEM).
# [3] = tested on: rats; experiment: Tail-flick (hot beam) test in rats; remark: listed apart in the source
# [4] = Morphine 1.0 mg/kg i.v. group, Control (pre-test 0.5 h before application)
# [5] = Morphine 1.0 mg/kg i.v., 30 min
# [6] = Morphine 1.0 mg/kg i.v., 60 min
# [7] = Morphine 1.0 mg/kg i.v., 180 min
# [8] = Morphine 2.0 mg/kg i.v. group, Control (pre-test 0.5 h before application)
# [9] = Morphine 2.0 mg/kg i.v., 30 min
# [10] = Morphine 2.0 mg/kg i.v., 60 min
# [11] = Morphine 2.0 mg/kg i.v., 180 min
# [12] = AMG-9810 2.15 mg/kg i.v. group, Control (pre-test 0.5 h before application)
# [13] = AMG-9810 2.15 mg/kg i.v., 30 min
# [14] = AMG-9810 2.15 mg/kg i.v., 60 min
# [15] = AMG-9810 2.15 mg/kg i.v., 180 min
smiles,measurement,setting,value
"CN1CC[C@]23c4c5ccc(O)c4O[C@H]2[C@@H](O)C=C[C@H]3[C@H]1C5 [Morphine, morphine]","% MPE (increase in pain latency), mean","[1]; Morphine 0.4 mg/kg i.v., 10 min",26.51 % MPE
same,"% MPE (increase in pain latency), mean","[1]; Morphine 0.4 mg/kg i.v., 60 min",4.23 % MPE
same,antinociceptive efficacy (conclusion),[1]; combination of two threshold doses of the same opioid,additive antinociceptive efficacy
same,"pull-away threshold value, contra-lateral rear paw, mean",[2]; [4],56.81 gram
same,"pull-away threshold value, ipsi-lateral rear paw, mean",[2]; [4],23.63 gram
same,"pull-away threshold value, contra-lateral rear paw, mean",[2]; [5],67.87 gram
same,"pull-away threshold value, ipsi-lateral rear paw, mean",[2]; [5],32.13 gram
same,"pull-away threshold value, contra-lateral rear paw, mean",[2]; [6],60.95 gram
same,"pull-away threshold value, ipsi-lateral rear paw, mean",[2]; [6],27.65 gram
same,"pull-away threshold value, contra-lateral rear paw, mean",[2]; [7],54.63 gram
same,"pull-away threshold value, ipsi-lateral rear paw, mean",[2]; [7],30.67 gram
same,"pull-away threshold value, contra-lateral rear paw, mean",[2]; [8],58.39 gram
same,"pull-away threshold value, ipsi-lateral rear paw, mean",[2]; [8],24.37 gram
same,"pull-away threshold value, contra-lateral rear paw, mean",[2]; [9],82.83 gram
same,"pull-away threshold value, ipsi-lateral rear paw, mean",[2]; [9],48.44 gram
same,"pull-away threshold value, contra-lateral rear paw, mean",[2]; [10],74.68 gram
same,"pull-away threshold value, ipsi-lateral rear paw, mean",[2]; [10],44.87 gram
same,"pull-away threshold value, contra-lateral rear paw, mean",[2]; [11],59.93 gram
same,"pull-away threshold value, ipsi-lateral rear paw, mean",[2]; [11],39.19 gram
same,efficacy (conclusion),"[2]; combination of two threshold doses of the same opioid, pull away increased on ipsi- and contra-lateral paw",additive antinociceptive efficacy
same,"% MPE (increase in pain latency), mean","[3]; Morphine 0.4 mg/kg i.v., 20 min",23.62 % MPE
same,"% MPE (increase in pain latency), mean","[3]; Morphine 0.4 mg/kg i.v., 40 min",14.1 % MPE
same,"% MPE (increase in pain latency), mean","[3]; Morphine 0.8 mg/kg i.v., 10 min",45.31 % MPE
same,"% MPE (increase in pain latency), mean","[3]; Morphine 0.8 mg/kg i.v., 20 min",45.02 % MPE
same,"% MPE (increase in pain latency), mean","[3]; Morphine 0.8 mg/kg i.v., 40 min",25.86 % MPE
same,"% MPE (increase in pain latency), mean","[3]; Morphine 0.8 mg/kg i.v., 60 min",14.62 % MPE
CC(C)(C)c1ccc(/C=C/C(=O)Nc2ccc3c(c2)OCCO3)cc1 [AMG-9810],"% MPE (increase in pain latency), mean","[1]; AMG-9810 10 mg/kg i.v., 10 min",26.36 % MPE
same,"% MPE (increase in pain latency), mean","[1]; AMG-9810 10 mg/kg i.v., 20 min",11.44 % MPE
same,"% MPE (increase in pain latency), mean","[1]; AMG-9810 10 mg/kg i.v., 60 min",−4.06 % MPE
same,"pull-away threshold value, contra-lateral rear paw, mean",[2]; [12],57.79 gram
same,"pull-away threshold value, ipsi-lateral rear paw, mean",[2]; [12],23.23 gram
same,"pull-away threshold value, contra-lateral rear paw, mean",[2]; [13],55.91 gram
same,"pull-away threshold value, ipsi-lateral rear paw, mean",[2]; [13],32.27 gram
same,"pull-away threshold value, contra-lateral rear paw, mean",[2]; [14],52.4 gram
same,"pull-away threshold value, ipsi-lateral rear paw, mean",[2]; [14],31.18 gram
same,"pull-away threshold value, contra-lateral rear paw, mean",[2]; [15],57.38 gram
same,"pull-away threshold value, ipsi-lateral rear paw, mean",[2]; [15],26.94 gram
same,"% MPE (increase in pain latency), mean","[3]; AMG-9810 10 mg/kg i.v., 40 min",4.38 % MPE
